Article PMC9784957 (Viruses, 2022)
Like-named read-outs stand apart in the source and are kept apart here.

Key:
[1] = target: T1, gp41 hydrophobic pocket (FeII(env2.0)3) (Human immunodeficiency virus type 1 group M subtype B, UniProt P04578); assay: Fluorescence intensity binding affinity assay, displacement of C18FL from FeII; set-up: species or system HIV-1; conditions: for Increase in affinity for the HP of STP ester compared to acid, change in IC50: ester vs acid
[2] = system: HIV-1 HXB2 Env pseudotyped virus; assay: Virus-cell fusion (infectivity) assay, HXB2 Env pseudotyped virus, TZM-bl cells; type: cell-based; conditions: for EC50 / IC50 / EC90: Human immunodeficiency virus 1, HXB2, TZM-bl; for EC50: read-out: Antiviral Activity EC50; for IC50: read-out: IC50 HXB2; for EC90: read-out: Antiviral Activity EC90
[3] = system: HXB2 Env mediated cell-cell fusion; assay: Cell-cell fusion assay, HL2/3 effector cells and TZM-bl target cells; type: cell-based, HIV-1; conditions: for IC50: Human immunodeficiency virus 1, HXB2, read-out: IC50 (CCF); for Potency enhancement against cell-cell fusion upon STP esterification: ester vs acid
[4] = Resazurin cell viability assay run concomitantly with the fusion assays; type: cell-based; conditions: human, TZM-bl cells, approximated
Aqueous solubility = type: physicochemical
HXB2 pseudotyped virus = assay: microbe, parasite or virus in culture; type: cell-based, HIV-1; conditions: for Increase in IC50 (loss of activity) when compound added 2 h after virus: HXB2 pseudotyped virus
[5] = system: gp41 hydrophobic pocket metallopeptide with Lys-574 replaced with norleucine; type: binding, HIV-1; conditions: Nle-574 receptor vs Lys-574 receptor
TZM-bl cells = assay: Resazurin cell viability assay run concomitantly with the fusion assays; type: cell-based; conditions: at 100 µM, Ampho-MLV Env experiment
[6] = system: HIV-1 JRFL Env pseudotyped virus; assay: Virus-cell fusion assay, JRFL Env pseudotyped virus; type: cell-based
[7] = system: Ampho-MLV Env pseudotyped virus; assay: Virus-cell fusion assay, Ampho-MLV Env pseudotyped virus; type: cell-based
[8] = target: T1, gp41 hydrophobic pocket (FeII(env2.0)3); conditions: equilibrium binding to the HP; cited from earlier work
[9] = system: HIV-1 HXB2 Env pseudotyped virus; set-up: method as in earlier work; conditions: virus-cell fusion assay using lab adapted strain HXB2; cited from earlier work
[10] = system: HXB2 Env mediated cell-cell fusion; set-up: method as in earlier work; conditions: cell-cell fusion assay; cited from earlier work
[11] = ester vs acid, pseudoviral infectivity
[12] = in antiviral assay, read-out: Antiviral Activity CC50
[13] = in cell-cell fusion assay, read-out: Inhibition of Cell-Cell Fusion CC50

T1 sequence (P04578 565-584): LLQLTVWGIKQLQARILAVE

| Compound | Ki [1] | Increase in affinity for the HP of STP ester compared to acid, change in IC50 [1] | EC50 [2] | Improvement of antiviral activity (EC50) by STP esterification [2, 11] | CC50 [4, 12] | CC50 [4, 13] | Increase in IC50 (loss of activity) when compound added 2 h after virus (HXB2 pseudotyped virus) | EC90 [2] | further results |
| --- | --- | --- | --- | --- | --- | --- | --- | --- | --- |
| CCOC(=O)c1cc(O)n(-c2ccc(C(=O)O)cc2)n1 [Compound 3] | 177 ± 12 µM | 10 fold | > 100 µM | greater than 10 fold | > 100 µM | > 100 µM | – | – | IC50 [2]: > 100 µM; IC50 HXB2 ([2]; virus-cell fusion assay using lab adapted strain HXB2): No measurable antiviral potency; IC50 [3]: > 100 µM; Aqueous solubility (Aqueous solubility): high aqueous solubility |
| Cc1ccnc2c1NC(=O)c1cccnc1N2C1CC1 [nevirapine, reference compound] | – | – | – | – | – | – | 2.7 fold | – | – |
| c1cc(CN2CCCNCCNCCCNCC2)ccc1CN1CCCNCCNCCCNCC1 [AMD3100, reference compound] | – | – | – | – | – | – | – | – | Residual efficacy when added 2 h after virus (HXB2 pseudotyped virus; at 50X EC50): 5% |
| Cn1ncc2ccc(-c3ccc4cnn(Cc5ccc(F)c(C(=O)O)c5)c4c3)cc21 [Compound 2] | 25 ± 5 µM | 3 fold | 35 ± 7 µM | 7 fold | ≥ 356 µM | ≥ 113 µM | 2 fold | 800 ± 190 µM | IC50 [2]: 35 µM; IC50 [3]: ≥ 50 µM; Potency enhancement against cell-cell fusion upon STP esterification [3]: 7 fold |
| Cn1ncc2ccc(-c3ccc4cnn(Cc5ccc(F)c(C(=O)Oc6c(F)c(F)c(S(=O)(=O)O)c(F)c6F)c5)c4c3)cc21 [Compound 2-STP] | ~10 µM | 3 fold | 5 ± 4 µM | 7 fold | ≥ 100 µM | ≥ 200 µM | 14 fold | 59 ± 22 µM | Increase in IC50 on Nle-574 substitution [5]: 2.2 fold; Cytotoxicity (TZM-bl cells): 40%; Reduction in efficacy against JRFL Env compared to HXB2 Env [6]: 2 fold; Activity against Ampho-MLV Env pseudotyped particles [7]: artifact of the 40% cytotoxicity at 100 µM |
| CCOC(=O)c1cc(O)n(-c2ccc(C(=O)Oc3c(F)c(F)c(S(=O)(=O)O)c(F)c3F)cc2)n1 [Compound 3-STP] | ~20 µM | 10 fold | 9 ± 2 µM | > 10 fold | > 40 µM | > 40 µM | – | 44 ± 15 µM | Reduction in efficacy against JRFL Env compared to HXB2 Env [6]: 4 fold; Activity against Ampho-MLV Env pseudotyped particles [7]: no activity; activity at 40 µM (HXB2 pseudotyped virus; Human immunodeficiency virus 1, HXB2, 2 h, read-out: Residual activity when added after 2 h): 12% |
| COC(=O)c1cccc(Cn2ccc3ccc(-c4ccc5ccn(Cc6cccc(C(=O)Oc7c(F)c(F)c(S(=O)(=O)O)c(F)c7F)c6)c5c4)cc32)c1 [Compound 1-STP] | – | – | 0.3 ± 0.2 µM | 10 fold | 20 ± 3 µM | > 10 µM | 14 fold | 2.9 ± 1.6 µM | Increase in KI on replacing Lys-574 with norleucine [5]: 6 fold; EC90 difference, STP ester compared to acid [2, 11]: 14 fold |
| COC(=O)c1cccc(Cn2ccc3ccc(-c4ccc5ccn(Cc6cccc(C(=O)O)c6)c5c4)cc32)c1 [Compound 1] | – | no change | 3.2 ± 1.6 µM | greater than 10 fold | 22 ± 3 µM | > 10 µM | 2 fold | 17 ± 13 µM | Increase in KI on replacing Lys-574 with norleucine [5]: 5 fold; Potency enhancement against cell-cell fusion upon STP esterification [3]: about 2 fold; Ki [8]: 1 ± 0.5 µM; IC50 [9]: 3 µM; IC50 [10]: 0.4 µM |
